Assay type in all cases: biochemical
One test has as its system human and animal plasma. The test can be described thus: Anticoagulatory activity: activated partial thromboplastin time (aPTT) in plasma. As to conditions: in vitro in plasma, C.K. Prest kit, 37° C. for 3 minutes; plasma species of Table B not stated. On the procedure:
The anticoagulatory activity of the test substances is determined in vitro in human and animal plasma (for example mouse, rat, rabbit, pig and dog plasma). To this end, blood is drawn off in a mixing ratio of sodium citrate/blood of 1:9 using a 0.11 molar sodium citrate solution as receiver. Immediately after the blood has been drawn off, it is mixed thoroughly and centrifuged at about 4000 g for 15 minutes. The supernatant is pipetted off.
The activated partial thromboplastin time (aPTT) is determined in the presence of varying concentrations of test substance or the corresponding solvent using a commercial test kit (C.K. Prest from Diagnostica Stago). The test compounds are incubated with the plasma and the PTT reagent (cephalin, kaolin) at 37° C. for 3 minutes. Coagulation is then started by addition of 25 mM aqueous calcium chloride, and the time when coagulation occurs is determined. The concentration of test substance which brings about a 1.5-fold extension of the aPTT is determined.

In another test the target is T1, human plasmin (Homo sapiens, UniProt P00747).
T1 construct: purchased Kordia
T1 sequence (P00747 581-810 limits assumed): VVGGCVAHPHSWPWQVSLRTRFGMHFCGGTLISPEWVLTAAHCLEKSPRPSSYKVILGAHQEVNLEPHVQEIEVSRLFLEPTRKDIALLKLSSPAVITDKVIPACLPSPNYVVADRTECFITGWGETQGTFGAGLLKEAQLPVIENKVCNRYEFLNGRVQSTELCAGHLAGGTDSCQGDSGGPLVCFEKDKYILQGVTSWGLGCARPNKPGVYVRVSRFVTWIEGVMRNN
T1 sequence (P00747 97-580 partner limits assumed): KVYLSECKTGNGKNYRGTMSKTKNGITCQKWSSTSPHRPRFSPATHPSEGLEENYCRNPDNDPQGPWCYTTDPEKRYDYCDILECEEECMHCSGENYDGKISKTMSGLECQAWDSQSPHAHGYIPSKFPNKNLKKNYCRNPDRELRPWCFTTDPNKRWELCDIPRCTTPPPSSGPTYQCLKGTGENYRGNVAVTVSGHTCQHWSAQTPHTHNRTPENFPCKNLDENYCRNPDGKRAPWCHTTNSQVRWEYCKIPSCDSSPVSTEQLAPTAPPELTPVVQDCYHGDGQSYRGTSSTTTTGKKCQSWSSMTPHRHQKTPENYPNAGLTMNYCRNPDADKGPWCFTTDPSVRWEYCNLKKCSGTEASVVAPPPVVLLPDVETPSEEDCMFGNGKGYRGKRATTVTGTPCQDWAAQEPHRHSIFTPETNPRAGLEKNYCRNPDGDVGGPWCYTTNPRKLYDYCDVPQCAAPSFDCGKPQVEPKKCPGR
Briefly: Measurement of plasmin inhibition (fluorogenic peptide substrate). As to conditions: plasmin from Kordia, substrate MeOSuc-Ala-Phe-Lys-AMC, 30 min at 22° C. On the procedure:
The plasmin inhibition of the inventive substances is determined using a biochemical test system which utilizes the reaction of a peptidic plasmin substrate to determine the enzymatic activity of human plasmin. Here, plasmin cleaves from the peptic plasmin substrate the C-terminal aminomethylcoumarin (AMC), the fluorescence of which is measured. The determinations are carried out in microtitre plates.
(§1) Test substances are dissolved in dimethyl sulphoxide and serially diluted in dimethyl sulphoxide (3000 μM to 0.0078 μM; resulting final concentrations in the test: 50 μM to 0.00013 μM). In each case 1 μl of the diluted substance solutions are placed into the wells of white microtitre plates from Greiner (384 wells). Subsequently, the following are added successively: 20 μl of assay buffer (50 mmol/1 Tris buffer pH 7.4; 100 mmol/1 sodium chloride; 5 mmol/1 calcium chloride; 0.1% bovine serum albumin) and 20 μl of plasmin from Kordia (0.3 μg/ml in assay buffer). After 15 min of incubation, the enzyme reaction is started by addition of 20 μl of the plasmin substrate MeOSuc-Ala-Phe-Lys-AMC dissolved in assay buffer (150 μM in assay buffer) from Bachem, the mixture is incubated at room temperature (22° C.) for 30 min and fluorescence is then measured (excitation: 360 nm, emission: 460 nm). The measured emissions of the test batches with test substance are compared to those of control batches without test substance (only dimethyl sulphoxide instead of test substance in dimethyl sulphoxide), and the IC50 values are calculated from the concentration/activity relationships.

Another test addresses T2, human factor XIa (Homo sapiens, UniProt P03951).
T2 construct: purchased Kordia
The test can be described thus: Measurement of FXIa inhibition (fluorogenic peptide substrate). As to conditions: human factor XIa from Kordia, substrate Boc-Glu(OBzl)-Ala-Arg-AMC, 30 min at 22° C.; read-out: IC50 (FXIa inhibition). On the procedure: To determine the factor XIa inhibition of the substances according to the invention, a biochemical test system is used which utilizes the reaction of a peptidic factor XIa substrate to determine the enzymatic activity of human factor XIa. Here, factor XIa cleaves from the peptic factor XIa substrate the C-terminal aminomethylcoumarin (AMC), the fluorescence of which is measured. The determinations are carried out in microtitre plates.
as §1, with “factor XIa” for “plasmin”, “(0.45 nM” for “(0.3 μg/ml”, “Boc-Glu(OBzl)-Ala-Arg-AMC” for “MeOSuc-Ala-Phe-Lys-AMC”, “(10” for “(150”

Counter-ions that a name gives are not always drawn.

T2 sequence (P03951 388-625 limits assumed): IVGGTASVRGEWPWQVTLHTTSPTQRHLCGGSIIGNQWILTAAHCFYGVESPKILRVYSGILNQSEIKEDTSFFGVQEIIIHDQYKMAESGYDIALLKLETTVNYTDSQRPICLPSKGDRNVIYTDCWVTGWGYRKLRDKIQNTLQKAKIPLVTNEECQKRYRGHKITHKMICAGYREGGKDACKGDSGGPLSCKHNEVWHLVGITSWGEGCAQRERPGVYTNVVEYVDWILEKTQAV
T2 sequence (P03951 19-387 partner limits assumed): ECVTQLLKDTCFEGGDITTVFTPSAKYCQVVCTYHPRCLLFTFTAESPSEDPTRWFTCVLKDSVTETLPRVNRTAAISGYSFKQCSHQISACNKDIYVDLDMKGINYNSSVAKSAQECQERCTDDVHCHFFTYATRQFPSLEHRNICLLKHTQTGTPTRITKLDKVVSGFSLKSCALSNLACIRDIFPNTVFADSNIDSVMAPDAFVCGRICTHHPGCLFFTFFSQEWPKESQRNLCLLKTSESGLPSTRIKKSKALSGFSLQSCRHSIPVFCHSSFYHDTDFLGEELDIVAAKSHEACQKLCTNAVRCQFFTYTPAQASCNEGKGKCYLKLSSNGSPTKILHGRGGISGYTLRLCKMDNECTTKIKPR

By IC50 is commonly meant the concentration needed to halve the response being measured. As for `Cc1nc(C(=O)NC(C)C)ccc1-c1ccc(C[C@H](NC(=O)[C@H]2CC[C@H](CN)CC2)C(=O)Nc2ccc3c(=O)[nH][nH]c3c2)cc1` [Example 39, N-alpha-{[trans-4-(Aminomethyl)cyclohexyl]carbonyl}-4-[6-(isopropylcarbamoyl)-2-methylpyridin-3-yl]-N-(3-oxo-2,3-dihydro-1H-indazol-6-yl)-L-phenylalaninamide hydrochloride], in the test with human and animal plasma, the “aPTT (concentration of test substance which brings about a 1.5-fold extension of the aPTT)” value is 0.27 µmol/L. Further, the IC50 on human plasmin worked out at 1.2 nM; at human factor XIa, 4.3 nM.
For `Cc1cc(C(=O)Nc2ccn(C)n2)ncc1-c1ccc(C[C@H](NC(=O)[C@H]2CC[C@H](CN)CC2)C(=O)Nc2ccc(-c3nnn[nH]3)cc2)cc1` [Example 23, N-alpha-{[trans-4-(Aminomethyl)cyclohexyl]carbonyl}-4-{4-methyl-6-[(1-methyl-1H-pyrazol-3-yl)carbamoyl]pyridin-3-yl}-N-[4-(1H-tetrazol-5-yl)phenyl]-L-phenylalaninamide hydrochloride], in that order: 0.17 µmol/L, 4.5 nM and 2.5 nM.
Take `Cc1nc(C(=O)NC2CCC2)ccc1-c1ccc(C[C@H](NC(=O)[C@H]2CC[C@H](CN)CC2)C(=O)Nc2ccc3[nH]c(=O)[nH]c3c2)cc1` [Example 37, N-alpha-{[trans-4-(Aminomethyl)cyclohexyl]carbonyl}-4-[6-(cyclobutylcarbamoyl)-2-methylpyridin-3-yl]-N-(2-oxo-2,3-dihydro-1H-benzimidazol-5-yl)-L-phenylalaninamide hydrochloride]: the “aPTT (concentration of test substance which brings about a 1.5-fold extension of the aPTT)” value in the test with human and animal plasma is 0.2 µmol/L. The IC50 against human plasmin was found to be 1.5 nM; at human factor XIa it was 13 nM.
As for `Cc1nc(C(=O)N[C@H](C)CO)ccc1-c1ccc(C[C@H](NC(=O)[C@H]2CC[C@H](CN)CC2)C(=O)Nc2ccc(-c3nn[nH]n3)cc2)cc1` [Example 29, N-alpha-{[trans-4-(Aminomethyl)cyclohexyl]carbonyl}-4-(6-{[(2R)-1-hydroxypropan-2-yl]carbamoyl}-2-methylpyridin-3-yl)-N-[4-(2H-tetrazol-5-yl)phenyl]-L-phenylalaninamide hydrochloride], the 50% inhibitory concentration (IC50) was 10 nM against human plasmin and 2.4 nM on human factor XIa.
On to `Cc1nc(C(=O)NC2CCC2)ccc1-c1ccc(C[C@H](NC(=O)[C@H]2CC[C@H](CN)CC2)C(=O)Nc2ccc3cn[nH]c3c2)cc1` [Example 34, N-alpha-{[trans-4-(Aminomethyl)cyclohexyl]carbonyl}-4-[6-(cyclobutylcarbamoyl)-2-methylpyridin-3-yl]-N-1H-indazol-6-yl-L-phenylalaninamide hydrochloride], for which, in the test on human and animal plasma, the “aPTT (concentration of test substance which brings about a 1.5-fold extension of the aPTT)” value came to 0.41 µmol/L. The IC50 at human plasmin was 0.9 nM; on human factor XIa, 8.2 nM.
Regarding `Cc1nc(C(=O)NC(C)C)ccc1-c1ccc(C[C@H](NC(=O)[C@H]2CC[C@H](CN)CC2)C(=O)Nc2ccc3[nH]c(=O)[nH]c3c2)cc1` [Example 40, N-alpha-{[trans-4-(Aminomethyl)cyclohexyl]carbonyl}-4-[6-(isopropylcarbamoyl)-2-methylpyridin-3-yl]-N-(2-oxo-2,3-dihydro-1H-benzimidazol-5-yl)-L-phenylalaninamide hydrochloride], the IC50 at human plasmin was 1.8 nM; on human factor XIa, 15.5 nM.
For `Cc1nc(C(=O)NC(C)C)ccc1-c1ccc(C[C@H](NC(=O)[C@H]2CC[C@H](CN)CC2)C(=O)Nc2cc(Cl)c3oc(=O)[nH]c3c2)cc1` [Example 38, N-alpha-{[trans-4-(Aminomethyl)cyclohexyl]carbonyl}-N-(7-chloro-2-oxo-2,3-dihydro-1,3-benzoxazol-5-yl)-4-[6-(isopropylcarbamoyl)-2-methylpyridin-3-yl]-L-phenylalaninamide hydrochloride], in the test on human and animal plasma, the “aPTT (concentration of test substance which brings about a 1.5-fold extension of the aPTT)” value is 0.99 µmol/L. The IC50 worked out at 0.8 nM on human plasmin and 14 nM on human factor XIa.
Turning to `Cc1nc(C(=O)NC(C)C(F)(F)F)ccc1-c1ccc(C[C@H](NC(=O)[C@H]2CC[C@H](CN)CC2)C(=O)Nc2ccc3[nH]c(=O)[nH]c3c2)cc1` (stereo partly drawn) [Example 36, N-alpha-{[trans-4-(Aminomethyl)cyclohexyl]carbonyl}-4-{2-methyl-6-[(1,1,1-trifluoropropan-2-yl)carbamoyl]pyridin-3-yl}-N-(2-oxo-2,3-dihydro-1H-benzimidazol-5-yl)-L-phenylalaninamide hydrochloride], the “aPTT (concentration of test substance which brings about a 1.5-fold extension of the aPTT)” value in the test with human and animal plasma stood at 0.21 µmol/L. Besides, the values for the IC50 at human plasmin and on human factor XIa were 1.2 nM and 11 nM, respectively.
With `Cc1nc(C(=O)NC(C)C(F)(F)F)ccc1-c1ccc(C[C@H](NC(=O)[C@H]2CC[C@H](CN)CC2)C(=O)Nc2ccc3cn[nH]c3c2)cc1` (stereo partly drawn) [Example 35, N-alpha-{[trans-4-(Aminomethyl)cyclohexyl]carbonyl}-N-1H-indazol-6-yl-4-{2-methyl-6-[(1,1,1-trifluoropropan-2-yl)carbamoyl]pyridin-3-yl}-L-phenylalaninamide hydrochloride], in the test with human and animal plasma, the “aPTT (concentration of test substance which brings about a 1.5-fold extension of the aPTT)” value was 0.49 µmol/L. Moreover, the IC50 at human plasmin worked out at 1.1 nM; on human factor XIa, 8.7 nM.
Regarding `CCN(CC)C1CCC(NC(=O)c2cc(C)c(-c3ccc(C[C@H](NC(=O)[C@H]4CC[C@H](CN)CC4)C(=O)Nc4ccc(-c5nnn[nH]5)cc4)cc3)cn2)CC1` (stereo partly drawn) [Example 7, N-alpha-{[trans-4-(Aminomethyl)cyclohexyl]carbonyl}-4-(6-{[4-(diethylamino)cyclohexyl]-carbamoyl}-4-methylpyridin-3-yl)-N-[4-(1H-tetrazol-5-yl)phenyl]-L-phenylalaninamide hydrochloride], in the test on human and animal plasma, the “aPTT (concentration of test substance which brings about a 1.5-fold extension of the aPTT)” value was 0.04 µmol/L. Also, on human factor XIa, the IC50 worked out at 2.6 nM.
For `Cc1nc(C(=O)NC2C3CNCC32)ccc1-c1ccc(C[C@H](NC(=O)[C@H]2CC[C@H](CN)CC2)C(=O)Nc2ccc(-c3nn[nH]n3)cc2)cc1` (stereo partly drawn) [Example 16, N-alpha-{[trans-4-(Aminomethyl)cyclohexyl]carbonyl}-4-[6-(3-azabicyclo[3.1.0]hex-6-ylcarbamoyl)-2-methylpyridin-3-yl]-N-[4-(2H-tetrazol-5-yl)phenyl]-L-phenylalaninamide hydrochloride], in that order: 0.11 µmol/L and 8.1 nM.

Values taken from patent publication US20160222056A1, “SUBSTITUTED PHENYLALANINE DERIVATIVES” (BAYER PHARMA AKTIENGESELLSCHAFT, priority 2013, published 2016).
